Assay results as given in the supplement of paper PMC11451515.

How the values were obtained:
P12-Ichikawa [1] = experiment: AUC of viability dose-response curve (% viability x log10 dose units); higher = less sensitive; conditions: 48 h
Procedure, shortened: (§1)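 Leukemia cells adapted to each medium were seeded in 1536-well plates (500 or 1000 cells/well). They were dosed with library compounds in DMSO at 11 threefold doses, 47 μM to 0.79 nM, for 48 h at 37°C. CellTiter-Glo One luminescence was normalised per plate to DMSO and cell-free wells. Area under the curve was integrated by trapezoidal rule over log10 doses on a four-parameter log-logistic fit; curves exceeding full viability were scaled and curves failing quality control removed.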

NOMO1 [2] = experiment: as above; conditions: 48 h
Procedure, shortened: as §1

SEM cells [3] = experiment: as above; conditions: 48 h
Procedure, shortened: as §1

P12-Ichikawa [4] = experiment: cell viability relative to DMSO control; higher = less cytotoxic; conditions: HPLM + 10% dialyzed FBS, 48 h
Procedure, shortened: (§2)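 Leukemia cells (NOMO1 or SEM, 500 cells/well; P12-Ichikawa, 1000 cells/well) were seeded in 5 μl in 1536-well plates after at least four passages of adaptation to each medium. They received library compounds in DMSO by pin dosing, 11 threefold points from 47 μM to 0.79 nM. Luminescence with CellTiter-Glo One was read after 48 h at 37°C. Viability is stated per plate relative to DMSO wells, with cell-free wells as background.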

NOMO1 [5] = experiment: as above; conditions: 48 h
Procedure, shortened: as §2

SEM cells [6] = experiment: as above; conditions: 48 h
Procedure, shortened: as §2

O=C(O)CCCc1ccc(N(CCCl)CCCl)cc1
Conditions | AUC of viability dose-response curve | cell viability [%]
NOMO1 [2], HPLM + 10% dialyzed FBS | 468 | –
NOMO1 [2], RPMI 5 mM glucose + 10% FBS | 464 | –
NOMO1 [2], RPMI 5 mM glucose + 10% dialyzed FBS | 465 | –
P12-Ichikawa [1], HPLM + 10% dialyzed FBS | 455 | –
P12-Ichikawa [1], RPMI 5 mM glucose + 10% FBS | 456 | –
P12-Ichikawa [1], RPMI 5 mM glucose + 10% dialyzed FBS | 462 | –
P12-Ichikawa [4], 0.000781 µM | – | 117
P12-Ichikawa [4], 0.00234 µM | – | 116
P12-Ichikawa [4], 0.00702 µM | – | 118
P12-Ichikawa [4], 0.0211 µM | – | 122
P12-Ichikawa [4], 0.0632 µM | – | 125
P12-Ichikawa [4], 0.19 µM | – | 122
P12-Ichikawa [4], 0.569 µM | – | 125
P12-Ichikawa [4], 1.71 µM | – | 126
P12-Ichikawa [4], 5.12 µM | – | 123
P12-Ichikawa [4], 15.4 µM | – | 123
P12-Ichikawa [4], 46.1 µM | – | 20.4
SEM cells [3], HPLM + 10% dialyzed FBS | 458 | –
SEM cells [3], RPMI 5 mM glucose + 10% FBS | 451 | –
SEM cells [3], RPMI 5 mM glucose + 10% dialyzed FBS | 458 | –

cell viability [%]
Conditions | HPLM + 10% dialyzed FBS | RPMI 5 mM glucose + 10% FBS | RPMI 5 mM glucose + 10% dialyzed FBS
NOMO1 [5], 0.000781 µM | 111 | 115 | 119
NOMO1 [5], 0.00234 µM | 119 | 110 | 125
NOMO1 [5], 0.00702 µM | 119 | 134 | 131
NOMO1 [5], 0.0211 µM | 143 | 135 | 125
NOMO1 [5], 0.0632 µM | 118 | 127 | 130
NOMO1 [5], 0.19 µM | 151 | 132 | 125
NOMO1 [5], 0.569 µM | 109 | 146 | 129
NOMO1 [5], 1.71 µM | 134 | 132 | 108
NOMO1 [5], 5.12 µM | 138 | 141 | 152
NOMO1 [5], 15.4 µM | 123 | 135 | 141
NOMO1 [5], 46.1 µM | 86.4 | 61.4 | 63.9
SEM cells [6], 0.000781 µM | 96.5 | 95.7 | 97.4
SEM cells [6], 0.00234 µM | 108 | 91.8 | 113
SEM cells [6], 0.00702 µM | 112 | 126 | 120
SEM cells [6], 0.0211 µM | 119 | 122 | 111
SEM cells [6], 0.0632 µM | 120 | 114 | 128
SEM cells [6], 0.19 µM | 129 | 126 | 129
SEM cells [6], 0.569 µM | 125 | 121 | 133
SEM cells [6], 1.71 µM | 136 | 119 | 122
SEM cells [6], 5.12 µM | 120 | 124 | 137
SEM cells [6], 15.4 µM | 102 | 101 | 113
SEM cells [6], 46.1 µM | 55.5 | 20.2 | 36.8

CC(C(=O)O)c1ccc(-c2ccccc2)c(F)c1 (centres undefined)
AUC of viability dose-response curve
Conditions | NOMO1 [2] | P12-Ichikawa [1] | SEM cells [3]
HPLM + 10% dialyzed FBS | 464 | 424 | 442
RPMI 5 mM glucose + 10% FBS | 476 | 432 | 417
RPMI 5 mM glucose + 10% dialyzed FBS | 459 | 424 | 447

CN(C1CCc2c(c3ccccc3n2CC(=O)O)C1)[S+](=O)([O-])c1ccc(F)cc1 (centres undefined)
AUC of viability dose-response curve
Conditions | NOMO1 [2] | P12-Ichikawa [1] | SEM cells [3]
HPLM + 10% dialyzed FBS | 383 | 399 | 461
RPMI 5 mM glucose + 10% FBS | 392 | 401 | 425
RPMI 5 mM glucose + 10% dialyzed FBS | 392 | 419 | 454

CO[C@H]1O[C@@H]2O[C@@]3(C)CC[C@H]4[C@H](C)CC[C@@H]([C@H]1C)[C@@]24OO3
AUC of viability dose-response curve
Conditions | NOMO1 [2] | P12-Ichikawa [1] | SEM cells [3]
HPLM + 10% dialyzed FBS | 436 | 433 | 429
RPMI 5 mM glucose + 10% FBS | 433 | 430 | 456
RPMI 5 mM glucose + 10% dialyzed FBS | 405 | 417 | 451

CC/C(=C(/CC)c1ccc(O)cc1)c1ccc(O)cc1
AUC of viability dose-response curve
Conditions | NOMO1 [2] | P12-Ichikawa [1] | SEM cells [3]
HPLM + 10% dialyzed FBS | 442 | 463 | 473
RPMI 5 mM glucose + 10% FBS | 465 | 457 | 460
RPMI 5 mM glucose + 10% dialyzed FBS | 429 | 436 | 421

CCN(CC)Cc1ccc2cc(COC(=O)Nc3ccc(C(=O)NO)cc3)ccc2c1
AUC of viability dose-response curve
Conditions | NOMO1 [2] | P12-Ichikawa [1] | SEM cells [3]
HPLM + 10% dialyzed FBS | 362 | 349 | 333
RPMI 5 mM glucose + 10% FBS | 372 | 347 | 345
RPMI 5 mM glucose + 10% dialyzed FBS | 370 | 352 | 339

SEM cells [6], HPLM + 10% dialyzed FBS
Conditions | cell viability [%]
0.000781 µM | 108
0.00234 µM | 121
0.00702 µM | 127
0.0211 µM | 138
0.0632 µM | 129
0.19 µM | 138
0.569 µM | 118
1.71 µM | 59.1
5.12 µM | 3.07
15.4 µM | 2.21
46.1 µM | 3.97

C[C@H]1CN(C[C@@H](C)N1)C2=C(F)C3=C(C(=C2F)N)C(=O)\C(=C/N3C4CC4)C(O)=O
AUC of viability dose-response curve
Conditions | NOMO1 [2] | P12-Ichikawa [1] | SEM cells [3]
HPLM + 10% dialyzed FBS | 422 | 448 | 424
RPMI 5 mM glucose + 10% FBS | 466 | 441 | 423
RPMI 5 mM glucose + 10% dialyzed FBS | 446 | 430 | 425

cell viability [%], SEM cells [6]
Conditions | HPLM + 10% dialyzed FBS | RPMI 5 mM glucose + 10% dialyzed FBS
0.000781 µM | 108 | 119
0.00234 µM | 112 | 122
0.00702 µM | 130 | 134
0.0211 µM | 122 | 114
0.0632 µM | 109 | 109
0.19 µM | 115 | 124
0.569 µM | 107 | 118
1.71 µM | 91.4 | 95.3
5.12 µM | 95.9 | 96.3
15.4 µM | 86.4 | 88.7
46.1 µM | 60.1 | 56.9

COc1cc(Oc2ccnc3cc(OC)c(OC)cc23)ccc1NC(=O)NC(C)c1nccs1 (centres undefined)
AUC of viability dose-response curve
Conditions | NOMO1 [2] | P12-Ichikawa [1] | SEM cells [3]
HPLM + 10% dialyzed FBS | 444 | 449 | 453
RPMI 5 mM glucose + 10% FBS | 463 | 446 | 440
RPMI 5 mM glucose + 10% dialyzed FBS | 462 | 450 | 439

CC(C)C[C@H](NC(=O)c1cc2ccccc2s1)C(=O)N1CCN(C(=O)[C@H](CO)N[S+](=O)([O-])c2ccc(Cl)cc2Cl)CC1
AUC of viability dose-response curve
Conditions | NOMO1 [2] | P12-Ichikawa [1] | SEM cells [3]
HPLM + 10% dialyzed FBS | 461 | 462 | 451
RPMI 5 mM glucose + 10% FBS | 468 | 464 | 453
RPMI 5 mM glucose + 10% dialyzed FBS | 436 | 462 | 439

Cc1ccc(C(N)=O)cc1Nc1nccc(-c2cn(C(C)C)c3cnccc23)n1
AUC of viability dose-response curve
Conditions | HPLM + 10% dialyzed FBS | RPMI 5 mM glucose + 10% FBS | RPMI 5 mM glucose + 10% dialyzed FBS
P12-Ichikawa [1] | 463 | 459 | 451
SEM cells [3] | 356 | 342 | 326

cell viability [%], SEM cells [6]
Conditions | HPLM + 10% dialyzed FBS | RPMI 5 mM glucose + 10% dialyzed FBS
0.000781 µM | 99 | 109
0.00234 µM | 118 | 128
0.00702 µM | 113 | 124
0.0211 µM | 111 | 113
0.0632 µM | 100 | 113
0.19 µM | 88 | 87.3
0.569 µM | 75 | 64.1
1.71 µM | 80 | 71
5.12 µM | 61.4 | 52.5
15.4 µM | 29 | 34.8
46.1 µM | 16.7 | 12.7

C=C[C@H]1CN2CCC1C[C@H]2[C@H](O)c1ccnc2ccccc12 (some centres undefined)
AUC of viability dose-response curve
Conditions | NOMO1 [2] | P12-Ichikawa [1] | SEM cells [3]
HPLM + 10% dialyzed FBS | 451 | 458 | 449
RPMI 5 mM glucose + 10% FBS | 461 | 451 | 441
RPMI 5 mM glucose + 10% dialyzed FBS | 433 | 461 | 452

SEM cells [6], RPMI 5 mM glucose + 10% dialyzed FBS
Conditions | cell viability [%]
0.000781 µM | 123
0.00234 µM | 120
0.00702 µM | 122
0.0211 µM | 133
0.0632 µM | 126
0.19 µM | 138
0.569 µM | 132
1.71 µM | 133
5.12 µM | 108
15.4 µM | 110
46.1 µM | 55.1
